The numbers were not newly measured in PubChem BioAssay AID1259409 (Chemical Carcinogenesis Research Information System (CCRIS), 2018), which cites them from elsewhere.

The test system of the data set is rodent chemically induced tumor inhibition, incidence and multiplicity. In words: CCRIS tumor inhibitor studies. As to conditions: Route [Inhibitor]: ORAL, Species: RAT, Strain/Sex: SPRAGUE-DAWLEY/FEMALE.

For `COc1ccc(C[C@H]2COC(=O)[C@@H]2Cc2ccc(O[C@@H]3O[C@H](CO)[C@@H](O)[C@H](O)[C@H]3O)c(OC)c2)cc1OC`, the “tumour outcome (control, treated, inhibition, significance)” value runs as follows: (Carcinogen: 2-AMINO-1-METHYL-6-PHENYL-1H-IMIDAZO[4,5-B]PYRID INE, 105650-23-5, Dose [Inhibitor]: 0, 0.02% IN THE DIET FOR 8 WK BEGINNING 3 D POST LAST CARCINOGEN DOSE (STUDY DURATION: 48 WK), Target Tissue: Type of Lesion: MAMMARY GLAND: ADENOCARCINOMA, Dose [Carcinogen]: 100 MG/KG BW 1/WK FOR 8 WK BEGINNING AT 6 WK OF AGE, Promoter: NONE USED) 12/20 (60%), 10/19 (53%), 12%, not significant; (Carcinogen: 2-AMINO-1-METHYL-6-PHENYL-1H-IMIDAZO[4,5-B]PYRID INE, 105650-23-5, Dose [Inhibitor]: 0, 0.02% IN THE DIET FOR 8 WK BEGINNING 3 D POST LAST CARCINOGEN DOSE (STUDY DURATION: 48 WK), Target Tissue: Type of Lesion: MAMMARY GLAND: FIBROADENOMA, Dose [Carcinogen]: 100 MG/KG BW 1/WK FOR 8 WK BEGINNING AT 6 WK OF AGE, Promoter: NONE USED) 2/20 (10%), 2/19 (11%), -10%, not significant; (Carcinogen: 2-AMINO-1-METHYL-6-PHENYL-1H-IMIDAZO[4,5-B]PYRID INE, 105650-23-5, Dose [Inhibitor]: 0, 0.02% IN THE DIET FOR 8 WK BEGINNING 3 D PRIOR TO FIRST CARCINOGEN DOSE (STUDY DURATION: 48 WK), Target Tissue: Type of Lesion: MAMMARY GLAND: ADENOCARCINOMA, Dose [Carcinogen]: 100 MG/KG BW 1/WK FOR 8 WK CONCURRENT WITH INHIBITOR, Promoter: NONE USED) 12/20 (60%), 11/20 (55%), 8%, not significant; (Carcinogen: 2-AMINO-1-METHYL-6-PHENYL-1H-IMIDAZO[4,5-B]PYRID INE, 105650-23-5, Dose [Inhibitor]: 0, 0.02% IN THE DIET FOR 8 WK BEGINNING 3 D PRIOR TO FIRST CARCINOGEN DOSE (STUDY DURATION: 48 WK), Target Tissue: Type of Lesion: MAMMARY GLAND: FIBROADENOMA, Dose [Carcinogen]: 100 MG/KG BW 1/WK FOR 8 WK CONCURRENT WITH INHIBITOR, Promoter: NONE USED) 2/20 (10%), 3/20 (15%), -50%, not significant; (Carcinogen: 2-AMINO-1-METHYL-6-PHENYL-1H-IMIDAZO[4,5-B]PYRID INE, 105650-23-5, Dose [Inhibitor]: 0, 0.2% IN THE DIET FOR 8 WK BEGINNING 3 D POST LAST CARCINOGEN DOSE (STUDY DURATION: 48 WK), Target Tissue: Type of Lesion: MAMMARY GLAND: ADENOCARCINOMA, Dose [Carcinogen]: 100 MG/KG BW 1/WK FOR 8 WK BEGINNING AT 6 WK OF AGE, Promoter: NONE USED) 12/20 (60%), 11/20 (55%), 8%, not significant; (Carcinogen: 2-AMINO-1-METHYL-6-PHENYL-1H-IMIDAZO[4,5-B]PYRID INE, 105650-23-5, Dose [Inhibitor]: 0, 0.2% IN THE DIET FOR 8 WK BEGINNING 3 D POST LAST CARCINOGEN DOSE (STUDY DURATION: 48 WK), Target Tissue: Type of Lesion: MAMMARY GLAND: ADENOCARCINOMA, Dose [Carcinogen]: 100 MG/KG BW 1/WK FOR 8 WK CONCURRENT WITH INHIBITOR, Promoter: NONE USED) 12/20 (60%), 13/20 (65%), -8%, not significant. Further, the “tumour outcome (control, treated, inhibition, significance)” value by setting is: (Carcinogen: 2-AMINO-1-METHYL-6-PHENYL-1H-IMIDAZO[4,5-B]PYRID INE, 105650-23-5, Dose [Inhibitor]: 0, 0.2% IN THE DIET FOR 8 WK BEGINNING 3 D PRIOR TO FIRST CARCINOGEN DOSE (STUDY DURATION: 48 WK), Target Tissue: Type of Lesion: MAMMARY GLAND: FIBROADENOMA, Dose [Carcinogen]: 100 MG/KG BW 1/WK FOR 8 WK CONCURRENT WITH INHIBITOR, Promoter: NONE USED) 2/20 (10%), 4/20 (20%), -100%, not significant; (Carcinogen: 2-AMINO-1-METHYL-6-PHENYL-1H-IMIDAZO[4,5-B]PYRID INE, Dose [Inhibitor]: 0, 0.2% IN THE DIET FOR 8 WK BEGINNING 3 D POST LAST CARCINOGEN DOSE (STUDY DURATION: 48 WK), Target Tissue: Type of Lesion: MAMMARY GLAND: FIBROADENOMA, Dose [Carcinogen]: 100 MG/KG BW 1/WK FOR 8 WK BEGINNING AT 6 WK OF AGE, Promoter: NONE USED) 2/20 (10%), 2/20 (10%), 0%, not significant; (Carcinogen: 2-AMINO-1-METHYL-6-PHENYLIMIDAZO[4,5-B]PYRIDINE [105650-23-5], Dose [Inhibitor]: 0.02% IN DIET FOR 8 WK BEGINNING 3 D PRIOR TO FIRST CARCINOGEN DOSE (STUDY DURATION: 48 WK), Target Tissue: Type of Lesion: MAMMARY GLAND: CARCINOMA, Dose [Carcinogen]: 100 MG/KG BW 1X/WK FOR 8 WK (STUDY DURATION: 48 WK), Promoter: NONE) 12/20 (60%), 11/20 (55%), 8%, not significant; (Carcinogen: 2-AMINO-1-METHYL-6-PHENYLIMIDAZO[4,5-B]PYRIDINE [105650-23-5], Dose [Inhibitor]: 0.02% IN DIET FOR 8 WK BEGINNING 3 D PRIOR TO FIRST CARCINOGEN DOSE (STUDY DURATION: 48 WK), Target Tissue: Type of Lesion: MAMMARY GLAND: FIBROADENOMA, Dose [Carcinogen]: 100 MG/KG BW 1X/WK FOR 8 WK (STUDY DURATION: 48 WK), Promoter: NONE) 2/20 (10%), 3/20 (15%), -50%, not significant; (Carcinogen: 2-AMINO-1-METHYL-6-PHENYLIMIDAZO[4,5-B]PYRIDINE [105650-23-5], Dose [Inhibitor]: 0.02% IN DIET FOR 40 WK BEGINNING 3 D POST LAST CARCINOGEN DOSE (STUDY DURATION: 48 WK), Target Tissue: Type of Lesion: MAMMARY GLAND: CARCINOMA, Dose [Carcinogen]: 100 MG/KG BW 1X/WK FOR 8 WK (STUDY DURATION: 48 WK), Promoter: NONE) 12/20 (60%), 10/19 (53%), 12%, not significant; (Carcinogen: 2-AMINO-1-METHYL-6-PHENYLIMIDAZO[4,5-B]PYRIDINE [105650-23-5], Dose [Inhibitor]: 0.02% IN DIET FOR 40 WK BEGINNING 3 D POST LAST CARCINOGEN DOSE (STUDY DURATION: 48 WK), Target Tissue: Type of Lesion: MAMMARY GLAND: FIBROADENOMA, Dose [Carcinogen]: 100 MG/KG BW 1X FOR 8 WK (STUDY DURATION: 48 WK), Promoter: NONE) 2/20 (10%), 2/19 (11%), -10%, not significant. For the same compound, the “tumour outcome (control, treated, inhibition, significance)” value runs as follows: (Carcinogen: 2-AMINO-1-METHYL-6-PHENYLIMIDAZO[4,5-B]PYRIDINE [105650-23-5], Dose [Inhibitor]: 0.2% IN DIET FOR 8 WK BEGINNING 3 D PRIOR TO FIRST CARCINOGEN DOSE (STUDY DURATION: 48 WK), Target Tissue: Type of Lesion: MAMMARY GLAND: CARCINOMA, Dose [Carcinogen]: 100 MG/KG BW 1X/WK FOR 8 WK (STUDY DURATION: 48 WK), Promoter: NONE) 12/20 (60%), 13/20 (65%), -8%, not significant; (Carcinogen: 2-AMINO-1-METHYL-6-PHENYLIMIDAZO[4,5-B]PYRIDINE [105650-23-5], Dose [Inhibitor]: 0.2% IN DIET FOR 8 WK BEGINNING 3 D PRIOR TO FIRST CARCINOGEN DOSE (STUDY DURATION: 48 WK), Target Tissue: Type of Lesion: MAMMARY GLAND: FIBROADENOMA, Dose [Carcinogen]: 100 MG/KG BW 1X/WK FOR 8 WK (STUDY DURATION: 48 WK), Promoter: NONE) 2/20 (10%), 4/20 (20%), -100%, not significant; (Carcinogen: 2-AMINO-1-METHYL-6-PHENYLIMIDAZO[4,5-B]PYRIDINE [105650-23-5], Dose [Inhibitor]: 0.2% IN DIET FOR 40 WK BEGINNING 3 D POST LAST CARCINOGEN DOSE (STUDY DURATION: 48 WK), Target Tissue: Type of Lesion: MAMMARY GLAND: CARCINOMA, Dose [Carcinogen]: 100 MG/KG BW 1X FOR 8 WK (STUDY DURATION: 48 WK), Promoter: NONE) 12/20 (60%), 11/20 (55%), 8%, not significant; (Carcinogen: 2-AMINO-1-METHYL-6-PHENYLIMIDAZO[4,5-B]PYRIDINE [105650-23-5], Dose [Inhibitor]: 0.2% IN DIET FOR 40 WK BEGINNING 3 D POST LAST CARCINOGEN DOSE (STUDY DURATION: 48 WK), Target Tissue: Type of Lesion: MAMMARY GLAND: FIBROADENOMA, Dose [Carcinogen]: 100 MG/KG BW 1X FOR 8 WK (STUDY DURATION: 48 WK), Promoter: NONE) 2/20 (10%), 2/20 (10%), 0%, not significant.
